Results taken from publication PMC7714403 (JCI Insight, 2020).

Tests used:
CaMK1d = CaMK1d (Homo sapiens, UniProt Q8IU85); assay: KiNativ, OCI cells live cell; format: cell-based; conditions: 2 h
PKCd = PKCd (Homo sapiens, UniProt Q05655); assay: KiNativ, OCI cells live cell; format: cell-based; conditions: 2 h, labeling site Other, peptide […]
AurA = biological target: T1, AurA (Homo sapiens, UniProt O14965); assay: KiNativ, OCI cells live cell; format: cell-based; conditions: 2 h
T1 sequence (O14965 1-403): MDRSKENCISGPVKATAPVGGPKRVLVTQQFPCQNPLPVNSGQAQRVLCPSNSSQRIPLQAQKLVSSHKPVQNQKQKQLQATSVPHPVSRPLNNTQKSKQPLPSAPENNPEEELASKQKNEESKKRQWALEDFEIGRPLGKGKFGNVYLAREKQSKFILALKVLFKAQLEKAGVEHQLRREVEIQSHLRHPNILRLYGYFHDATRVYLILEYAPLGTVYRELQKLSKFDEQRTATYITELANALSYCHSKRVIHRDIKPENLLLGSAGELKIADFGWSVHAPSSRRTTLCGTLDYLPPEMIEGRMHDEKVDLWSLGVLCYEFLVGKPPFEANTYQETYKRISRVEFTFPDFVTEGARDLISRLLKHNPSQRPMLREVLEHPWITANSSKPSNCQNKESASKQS

ILK = biological target: T2, ILK (Homo sapiens, UniProt Q13418); assay: KiNativ, OCI cells live cell; format: cell-based; conditions: 2 h
T2 sequence (Q13418 1-452): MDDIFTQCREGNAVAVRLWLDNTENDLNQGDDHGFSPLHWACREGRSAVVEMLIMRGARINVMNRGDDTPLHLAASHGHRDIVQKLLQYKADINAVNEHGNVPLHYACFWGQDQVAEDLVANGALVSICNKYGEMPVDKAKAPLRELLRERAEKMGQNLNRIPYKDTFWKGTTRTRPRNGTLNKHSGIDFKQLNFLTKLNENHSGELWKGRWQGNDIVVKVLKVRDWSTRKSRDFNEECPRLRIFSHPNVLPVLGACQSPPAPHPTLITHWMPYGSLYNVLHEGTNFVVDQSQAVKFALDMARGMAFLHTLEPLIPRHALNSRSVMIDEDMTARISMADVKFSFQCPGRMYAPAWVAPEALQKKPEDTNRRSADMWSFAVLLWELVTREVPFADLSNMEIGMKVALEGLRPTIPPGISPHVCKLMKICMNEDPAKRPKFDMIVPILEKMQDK

TBK1 = TBK1 (Homo sapiens, UniProt Q9UHD2); assay: KiNativ, OCI cells live cell; format: cell-based; conditions: 2 h, labeling site Lys1, peptide […]
CDK5 = CDK5 (Homo sapiens, UniProt Q00535); assay: KiNativ, OCI cells live cell; format: cell-based; conditions: 2 h
CaMK1a = CaMK1a (Homo sapiens, UniProt Q14012); assay: KiNativ, OCI cells live cell; format: cell-based; conditions: 2 h
EphB3 = EphB3 (Homo sapiens, UniProt P54753); assay: KiNativ, OCI cells live cell; format: cell-based; conditions: 2 h, labeling site Activation Loop, peptide […]
[1] = system: ZC1/HGK, ZC2/TNIK, ZC3/MINK; assay: KiNativ, OCI cells live cell; format: cell-based, human; conditions: labeling site Lys2, peptide DIKGQNVLLTENAEVK
[2] = system: pAURKA, pAURKB, pAKT, and MCL1 in OCI-AML3 cells; assay: Western blot, signaling inhibition; format: cell-based, human; conditions: 100 nM, 4 hours
Experimental: (§1) MOM13 cells were serum starved (RPMI plus 0.5% FBS) for 18–24 hours prior to start of drug treatment. For other cells, they were not serum starved. Drug treatments were carried out for 1 or 4 hours, at which time cells were lysed with Cell Lysis buffer (CST) or RIPA buffer (CST) supplemented with protease and phosphatase inhibitors. […] Western blots were developed with either Signal Fire ECL reagent (CST) or SuperSignal West Femto Maximum Sensitivity Substrate (Invitrogen) using Film or Odyssey FC Imaging System (LI-COR Biosciences). Western blots were repeated in 2–3 biological replicate experiments.

[3] = system: phospho-FLT3 and phospho-STAT5 in MOLM13 and MV4-11 cells; assay: Western blot, signaling inhibition; format: cell-based, human; conditions: 4 hours
Experimental: as §1

MARK3 = MARK3 (Homo sapiens, UniProt P27448); assay: KiNativ, OCI cells live cell; format: cell-based; conditions: 2 h, labeling site Lys1, peptide […]
PI4KA = PI4KA (Homo sapiens, UniProt P42356); assay: KiNativ, OCI cells live cell; format: cell-based; conditions: 2 h, labeling site ATP, peptide […]
ABL, ARG = assay: KiNativ, OCI cells live cell; format: cell-based, human
CHK2 = CHK2 (Homo sapiens, UniProt O96017); assay: KiNativ, OCI cells live cell; format: cell-based; conditions: 2 h
CHEK1 = biological target: T3, CHEK1 (Homo sapiens, UniProt O14757); assay: KdELECT binding assay
T3 construct: purchased Eurofins DiscoverX

CHEK2 = biological target: T4, CHEK2 (Homo sapiens, UniProt O96017); assay: KdELECT binding assay
T4 construct: purchased Eurofins DiscoverX

PCTAIRE1, PCTAIRE3 = assay: KiNativ, OCI cells live cell; format: cell-based, human; conditions: labeling site Lys2, peptide DLKPQNLLINER
SBK = SBK (Homo sapiens, UniProt Q52WX2); assay: KiNativ, OCI cells live cell; format: cell-based; conditions: 2 h, labeling site Lys2, peptide […]
MSK2 domain1 = biological target: T5, MSK2 domain1 (Homo sapiens, UniProt O75676); assay: KiNativ, OCI cells live cell; format: cell-based; conditions: 2 h
T5 construct: MSK2 domain1

FYN, SRC, YES = assay: KiNativ, OCI cells live cell; format: cell-based, human; conditions: labeling site Activation Loop, peptide QGAKFPIKWTAPEAALYGR
MERTK = biological target: T6, MERTK (Homo sapiens, UniProt Q12866); assay: KdELECT binding assay
T6 construct: purchased Eurofins DiscoverX

T5 sequence (O75676 whole entry, the tested form may be a part): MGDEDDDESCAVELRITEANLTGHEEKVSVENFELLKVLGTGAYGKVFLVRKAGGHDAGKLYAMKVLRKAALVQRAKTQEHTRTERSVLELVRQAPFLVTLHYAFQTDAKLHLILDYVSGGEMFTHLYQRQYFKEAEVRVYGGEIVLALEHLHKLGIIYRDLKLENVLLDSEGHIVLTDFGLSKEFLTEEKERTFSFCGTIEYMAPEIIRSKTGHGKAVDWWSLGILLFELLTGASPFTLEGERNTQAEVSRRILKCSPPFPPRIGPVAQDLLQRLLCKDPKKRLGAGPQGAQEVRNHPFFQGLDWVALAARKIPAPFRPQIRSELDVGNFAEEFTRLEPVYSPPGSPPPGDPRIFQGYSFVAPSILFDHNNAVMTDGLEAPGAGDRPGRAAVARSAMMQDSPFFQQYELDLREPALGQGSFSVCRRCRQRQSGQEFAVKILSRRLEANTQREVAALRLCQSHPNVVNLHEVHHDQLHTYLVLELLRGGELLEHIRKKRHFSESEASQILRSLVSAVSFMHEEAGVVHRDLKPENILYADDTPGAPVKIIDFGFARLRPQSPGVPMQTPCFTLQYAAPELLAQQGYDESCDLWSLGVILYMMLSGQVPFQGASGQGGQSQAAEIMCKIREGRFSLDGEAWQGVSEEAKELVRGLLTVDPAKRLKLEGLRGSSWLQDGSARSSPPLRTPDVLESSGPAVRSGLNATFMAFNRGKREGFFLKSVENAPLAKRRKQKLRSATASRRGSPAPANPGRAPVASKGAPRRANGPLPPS
CaMK1a, sequence (Q14012 whole entry): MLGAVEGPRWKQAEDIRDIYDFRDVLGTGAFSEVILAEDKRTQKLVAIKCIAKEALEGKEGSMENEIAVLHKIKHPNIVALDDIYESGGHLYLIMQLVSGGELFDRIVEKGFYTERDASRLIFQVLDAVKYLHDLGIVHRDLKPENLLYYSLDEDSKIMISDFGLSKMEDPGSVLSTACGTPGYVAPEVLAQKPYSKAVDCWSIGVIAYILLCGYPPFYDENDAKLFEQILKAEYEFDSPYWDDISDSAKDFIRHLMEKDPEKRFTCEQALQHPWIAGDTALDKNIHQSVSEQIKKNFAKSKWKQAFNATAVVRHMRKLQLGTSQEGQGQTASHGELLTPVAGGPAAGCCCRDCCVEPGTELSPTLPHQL
CDK5, sequence (Q00535 whole entry): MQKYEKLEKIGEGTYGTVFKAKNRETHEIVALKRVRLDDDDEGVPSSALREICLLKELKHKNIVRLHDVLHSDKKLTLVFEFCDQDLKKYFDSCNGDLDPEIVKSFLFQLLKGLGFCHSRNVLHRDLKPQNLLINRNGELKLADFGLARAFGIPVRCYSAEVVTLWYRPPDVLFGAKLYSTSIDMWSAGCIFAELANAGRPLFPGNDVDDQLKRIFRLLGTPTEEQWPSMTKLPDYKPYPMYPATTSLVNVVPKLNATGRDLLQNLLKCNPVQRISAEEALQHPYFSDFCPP
CaMK1d, sequence (Q8IU85 whole entry): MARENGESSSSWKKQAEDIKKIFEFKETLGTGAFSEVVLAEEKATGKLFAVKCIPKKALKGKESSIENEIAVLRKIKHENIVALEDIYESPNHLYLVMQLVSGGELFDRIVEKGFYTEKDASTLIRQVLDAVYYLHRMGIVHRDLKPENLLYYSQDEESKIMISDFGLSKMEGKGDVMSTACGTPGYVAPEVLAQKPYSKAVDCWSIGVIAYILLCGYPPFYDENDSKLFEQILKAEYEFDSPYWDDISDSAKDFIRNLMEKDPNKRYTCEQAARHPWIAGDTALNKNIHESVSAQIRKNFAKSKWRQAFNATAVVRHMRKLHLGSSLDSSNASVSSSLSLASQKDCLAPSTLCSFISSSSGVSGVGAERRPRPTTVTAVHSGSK
CHK2, sequence (O96017 whole entry): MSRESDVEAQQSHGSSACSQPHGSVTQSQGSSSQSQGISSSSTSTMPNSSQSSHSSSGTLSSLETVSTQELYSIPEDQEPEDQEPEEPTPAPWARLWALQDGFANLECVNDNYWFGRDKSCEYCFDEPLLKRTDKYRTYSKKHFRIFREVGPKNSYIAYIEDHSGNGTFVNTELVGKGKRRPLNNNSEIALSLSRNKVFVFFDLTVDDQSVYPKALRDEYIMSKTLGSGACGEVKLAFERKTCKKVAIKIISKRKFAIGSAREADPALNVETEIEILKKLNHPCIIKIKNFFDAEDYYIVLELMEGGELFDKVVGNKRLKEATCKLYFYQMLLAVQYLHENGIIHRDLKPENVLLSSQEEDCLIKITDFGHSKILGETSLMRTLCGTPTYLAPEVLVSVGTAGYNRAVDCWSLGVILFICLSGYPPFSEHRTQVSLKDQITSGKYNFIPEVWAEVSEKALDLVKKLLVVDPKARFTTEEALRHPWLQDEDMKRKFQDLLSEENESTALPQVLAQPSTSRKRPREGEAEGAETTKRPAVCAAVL
MARK3, sequence (P27448 whole entry): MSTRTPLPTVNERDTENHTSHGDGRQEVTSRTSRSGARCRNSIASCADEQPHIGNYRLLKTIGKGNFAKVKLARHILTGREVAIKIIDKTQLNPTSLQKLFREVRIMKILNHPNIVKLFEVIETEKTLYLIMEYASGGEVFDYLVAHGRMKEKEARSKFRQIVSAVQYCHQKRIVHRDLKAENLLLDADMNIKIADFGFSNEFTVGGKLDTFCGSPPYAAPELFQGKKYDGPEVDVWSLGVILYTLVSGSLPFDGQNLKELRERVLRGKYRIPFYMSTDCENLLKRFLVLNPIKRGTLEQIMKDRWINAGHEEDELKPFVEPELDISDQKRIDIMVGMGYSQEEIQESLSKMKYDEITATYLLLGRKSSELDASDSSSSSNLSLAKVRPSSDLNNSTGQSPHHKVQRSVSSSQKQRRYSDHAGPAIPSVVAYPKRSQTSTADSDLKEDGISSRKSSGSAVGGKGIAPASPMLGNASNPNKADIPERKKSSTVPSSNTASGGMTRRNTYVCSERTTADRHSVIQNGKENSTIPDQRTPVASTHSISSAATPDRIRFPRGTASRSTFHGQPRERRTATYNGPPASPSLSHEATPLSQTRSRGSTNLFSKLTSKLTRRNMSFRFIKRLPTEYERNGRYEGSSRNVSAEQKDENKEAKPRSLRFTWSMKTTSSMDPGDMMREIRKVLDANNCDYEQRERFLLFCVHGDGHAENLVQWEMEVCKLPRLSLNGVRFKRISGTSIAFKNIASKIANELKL
TBK1, sequence (Q9UHD2 whole entry): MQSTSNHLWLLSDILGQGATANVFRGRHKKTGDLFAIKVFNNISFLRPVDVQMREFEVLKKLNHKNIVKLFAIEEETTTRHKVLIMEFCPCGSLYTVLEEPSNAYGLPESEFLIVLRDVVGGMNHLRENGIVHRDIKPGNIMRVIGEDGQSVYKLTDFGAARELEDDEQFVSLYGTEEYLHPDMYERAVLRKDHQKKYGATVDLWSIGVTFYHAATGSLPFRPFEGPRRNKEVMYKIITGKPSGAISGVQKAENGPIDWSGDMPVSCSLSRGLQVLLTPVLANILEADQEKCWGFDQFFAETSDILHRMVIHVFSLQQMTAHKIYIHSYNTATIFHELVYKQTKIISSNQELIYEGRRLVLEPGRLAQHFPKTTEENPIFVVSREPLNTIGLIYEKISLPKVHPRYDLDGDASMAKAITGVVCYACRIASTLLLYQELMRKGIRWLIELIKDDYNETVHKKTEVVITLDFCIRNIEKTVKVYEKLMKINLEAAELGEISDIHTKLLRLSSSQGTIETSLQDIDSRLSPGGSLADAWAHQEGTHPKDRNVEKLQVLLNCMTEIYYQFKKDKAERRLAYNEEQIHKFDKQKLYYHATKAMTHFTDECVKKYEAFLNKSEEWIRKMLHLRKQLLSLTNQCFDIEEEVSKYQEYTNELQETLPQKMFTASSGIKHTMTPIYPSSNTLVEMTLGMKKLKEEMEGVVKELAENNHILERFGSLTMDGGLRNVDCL
T3 sequence (O14757 whole entry): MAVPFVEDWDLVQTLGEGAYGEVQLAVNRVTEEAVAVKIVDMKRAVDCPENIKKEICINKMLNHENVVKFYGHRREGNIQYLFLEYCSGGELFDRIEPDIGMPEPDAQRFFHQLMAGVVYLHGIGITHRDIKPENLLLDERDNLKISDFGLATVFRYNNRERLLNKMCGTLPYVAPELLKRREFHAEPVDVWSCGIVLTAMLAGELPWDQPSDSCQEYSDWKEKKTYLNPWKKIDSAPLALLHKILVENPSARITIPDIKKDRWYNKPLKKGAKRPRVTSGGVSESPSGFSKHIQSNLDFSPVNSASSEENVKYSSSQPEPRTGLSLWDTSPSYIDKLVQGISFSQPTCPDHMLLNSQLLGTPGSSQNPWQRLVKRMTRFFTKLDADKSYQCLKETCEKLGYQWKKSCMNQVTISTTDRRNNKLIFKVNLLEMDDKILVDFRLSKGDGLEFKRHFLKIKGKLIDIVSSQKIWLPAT
SBK, sequence (Q52WX2 whole entry, the tested form may be a part): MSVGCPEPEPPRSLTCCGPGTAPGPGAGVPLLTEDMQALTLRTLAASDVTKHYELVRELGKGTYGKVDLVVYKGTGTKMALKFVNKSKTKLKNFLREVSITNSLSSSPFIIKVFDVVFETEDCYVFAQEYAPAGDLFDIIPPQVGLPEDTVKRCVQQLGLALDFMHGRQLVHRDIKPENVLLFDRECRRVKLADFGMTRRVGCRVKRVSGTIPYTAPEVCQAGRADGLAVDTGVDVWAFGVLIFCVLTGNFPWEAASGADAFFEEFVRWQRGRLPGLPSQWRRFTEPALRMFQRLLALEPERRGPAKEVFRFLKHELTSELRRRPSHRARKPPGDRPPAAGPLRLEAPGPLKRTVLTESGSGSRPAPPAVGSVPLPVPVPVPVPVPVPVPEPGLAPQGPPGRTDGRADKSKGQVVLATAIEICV
T4 sequence (O96017 whole entry): as the sequence (O96017 whole entry) above

SMILES: CN1CCN(Cc2ccc(Nc3ncc(Cl)c(Nc4ccccc4S(=O)(=O)N(C)C)n3)cc2)CC1 [TP-0903]
- inhibition at 0.1 µM (CaMK1d; labeling site Lys1, peptide LFAVKCIPK): 13%
- inhibition at 0.1 µM (CaMK1d; labeling site Lys2, peptide DLKPENLLYYSQDEESK): 8.8%
- inhibition at 0.1 µM (PKCd): -22.5%
- inhibition at 0.1 µM (AurA; labeling site Lys1, peptide FILALKVLFK): 89.9%
- inhibition at 0.1 µM (AurA; labeling site Lys2, peptide DIKPENLLLGSAGELK): 90.7%
- inhibition at 0.1 µM (ILK; labeling site Lys1, peptide WQGNDIVVKVLK): -21.7%
- inhibition at 0.1 µM (ILK; labeling site Protein Kinase Domain, peptide ISMADVKFSFQCPGR): -42.5%
- inhibition at 0.1 µM (TBK1): 83%
- inhibition at 0.1 µM (CDK5; labeling site Lys1, peptide NRETHEIVALKR): 57%
- inhibition at 0.1 µM (CDK5; labeling site Lys2, peptide DLKPQNLLINR): 55.5%
- inhibition at 0.1 µM (CaMK1a; labeling site Lys1, peptide LVAIKCIAK): -6.6%
- inhibition at 0.1 µM (CaMK1a; labeling site Lys2, peptide DLKPENLLYYSLDEDSK): -19.1%
- inhibition at 0.1 µM (EphB3): 17.1%
- Inhibition [1]: -42.0%
- pAURKA, pAURKB, pAKT, and MCL1 by immunoblot [2]: inhibited
- phospho-FLT3 and phospho-STAT5 by immunoblot [3]: inhibited
- inhibition at 0.1 µM (MARK3): 47%
- inhibition at 0.1 µM (PI4KA): -14.6%
- Inhibition (ABL, ARG; labeling site Activation Loop, peptide LMTGDTYTAHAGAKFPIK): 37.3%
- Inhibition (ABL, ARG; labeling site Lys1, peptide YSLTVAVKTLKEDTMEVEEFLK): 40.1%
- inhibition at 0.1 µM (CHK2; labeling site Lys1, peptide VAIKIISK): 37.7%
- inhibition at 0.1 µM (CHK2; labeling site Lys2, peptide DLKPENVLLSSQEEDCLIK): 37.1%
- Kd (CHEK1): 24 nM
- Kd (CHEK2): < 5 nM
- Inhibition (PCTAIRE1, PCTAIRE3): 79.0%
- inhibition at 0.1 µM (SBK): -0.9%
- inhibition at 0.1 µM (MSK2 domain1; labeling site Lys1, peptide LYAMKVLR): 21.8%
- inhibition at 0.1 µM (MSK2 domain1; labeling site Lys2, peptide DLKLENVLLDSEGHIVLTDFGLSK): 12.3%
- Inhibition (FYN, SRC, YES): 16.0%
- Kd (MERTK): < 5 nM
